Values of other authors as cited in patent US9546151B2, “VMAT inhibitory compounds” (Oregon Health & Science University, priority 2014, dated 2017).

Molecular target: VMAT2 (Homo sapiens, UniProt Q05940)
Details: background statements; cited from earlier work

Sequence of VMAT2 (Q05940 whole entry, species assumed): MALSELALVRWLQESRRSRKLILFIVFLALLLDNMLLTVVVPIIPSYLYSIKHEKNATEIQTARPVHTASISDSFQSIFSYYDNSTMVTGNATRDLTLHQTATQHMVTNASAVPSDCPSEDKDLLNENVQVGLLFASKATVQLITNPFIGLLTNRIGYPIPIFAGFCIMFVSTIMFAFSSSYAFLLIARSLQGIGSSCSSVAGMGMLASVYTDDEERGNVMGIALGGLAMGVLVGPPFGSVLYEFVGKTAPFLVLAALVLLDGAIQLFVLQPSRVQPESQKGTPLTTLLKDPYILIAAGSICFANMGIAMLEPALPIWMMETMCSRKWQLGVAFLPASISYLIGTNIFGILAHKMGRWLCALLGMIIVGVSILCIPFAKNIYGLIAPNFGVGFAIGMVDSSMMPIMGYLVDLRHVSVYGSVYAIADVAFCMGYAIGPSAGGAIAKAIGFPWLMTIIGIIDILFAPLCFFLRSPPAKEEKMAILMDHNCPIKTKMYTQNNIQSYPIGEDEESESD

Question: With `O=C(c1ccc(F)cc1)C1CCN(CCn2c(=O)[nH]c3ccccc3c2=O)CC1` [Ketanserin] as the molecule, how does the “affinity for VMAT2 (in words)” value read?
Answer: high affinity
